Laboratory results published in the NIST ThermoML archive (doi:10.1021/je800157v).

Assay: xn = mol fraction of the nth substance listed
Details: 101 kPa, Liquid

CCC(C)O (stereo unspecified) [butan-2-ol] + c1ccccc1
mass density [kg/m3]
Details | 288.15 K | 293.15 K | 298.15 K | 303.15 K | 308.15 K | 313.15 K
x1 = 0.0511 | 879.01 | 873.67 | 868.33 | 862.98 | 857.61 | 852.24
x1 = 0.0995 | 874.6 | 869.29 | 863.96 | 858.62 | 853.25 | 847.89
x1 = 0.1508 | 870.04 | 864.77 | 859.48 | 854.17 | 848.83 | 843.48
x1 = 0.2013 | 865.76 | 860.54 | 855.3 | 850.02 | 844.72 | 839.39
x1 = 0.2482 | 861.91 | 856.74 | 851.54 | 846.3 | 841.03 | 835.75
x1 = 0.2999 | 857.8 | 852.69 | 847.54 | 842.35 | 837.13 | 831.88
x1 = 0.3486 | 854.03 | 848.96 | 843.86 | 838.72 | 833.54 | 828.34
x1 = 0.3995 | 850.21 | 845.2 | 840.14 | 835.05 | 829.92 | 824.76
x1 = 0.4509 | 846.44 | 841.48 | 836.49 | 831.44 | 826.35 | 821.21
x1 = 0.5003 | 842.93 | 838.02 | 833.08 | 828.08 | 823.04 | 817.96
x1 = 0.5498 | 839.48 | 834.64 | 829.75 | 824.82 | 819.82 | 814.8
x1 = 0.5953 | 836.41 | 831.62 | 826.79 | 821.91 | 816.96 | 811.96
x1 = 0.6487 | 832.84 | 828.13 | 823.37 | 818.56 | 813.68 | 808.75
x1 = 0.7006 | 829.46 | 824.83 | 820.15 | 815.4 | 810.59 | 805.73
x1 = 0.7493 | 826.32 | 821.78 | 817.17 | 812.5 | 807.75 | 802.95
x1 = 0.802 | 822.97 | 818.51 | 814 | 809.41 | 804.74 | 800.01
x1 = 0.8501 | 819.96 | 815.6 | 811.17 | 806.66 | 802.07 | 797.4
x1 = 0.9003 | 816.84 | 812.58 | 808.25 | 803.84 | 799.34 | 794.77
x1 = 0.9206 | 815.57 | 811.36 | 807.07 | 802.7 | 798.25 | 793.72
x1 = 0.9479 | 813.92 | 809.76 | 804.85 | 801.21 | 796.18 | 791.73
x1 = 1 | 810.64 | 806.59 | 802.47 | 798.27 | 793.97 | 789.59
